The subject of data set [1] is venous thrombosis in SD Rat. Nature of the data set: Venous thrombosis in rat. The conditions noted are these: for antithrombotic effect (in words): single oral dose of 10 mg/kg. Also noted: wet weight of thrombus: unit not given here. Format: in vivo. The source says: Animals: SD Rat (Weight 180˜210 g, Sex Male)
Solution preparation: Weigh proper amount of the test chemical, dissolved in DMSO to give the stock solutions, serial dilution with water then provided the required concentration of administration dosage.
Experimental procedures: After 3-day adaptive breeding, male Sprague-Dawley rats were randomly divided into groups: model group, positive drug group and compound groups, with 4˜6 rats in each group.
The rats in the model group were given either intravenous injection or intragastric administration with equivalent solvent, those in the positive or compound group were given either intravenous injection or intragastric administration in a dose of 10 mg/kg.
The left renal vein was ligated with a silk thread to initiate thrombus formation. After 6 hours of stasis, another ligature was made at the distal side 2 cm apart from the first, thrombus formed inside the vessel was carefully removed, blotted on wet filter paper and weighed.

Data set [2] in a line: Solubility tests at different pH values. The data set is classed as physicochemical. The conditions noted are these: aqueous buffer, thermodynamic from solid, 37° C. As to the method:
Weigh proper amount of the test chemical into buffered salt solutions with different pH value (4.0, 6.3, 7.4 and 9.0), the suspension was shaken at 37° C. for 1 hour. Precipitated and undissolved residues were removed by centrifugation. The content of the supernatant was determined by HPLC to analyze the solubility of the test chemical.

A short description of data set [3]: Pharmacokinetics in dog. Format: in vivo, Beagle Dog. As to conditions: single i.v. dose of 2 mg/kg. Here is the method: (§1) Intragastric solution preparation: proper amount of the test chemical was weighed, and dissolved in DMSO to give the stock solution, which was then diluted serially with 0.5% CMC-Na solution to the required concentration of administration dosage.
(§2) IV solution preparation: proper amount of compound (V) was weighed, and dissolved in normal saline to give the stock solution, which was then diluted serially to the required concentration of administration dosage.
Experimental procedures: After 3-day adaptive breeding, male dogs were divided into groups randomly with 4 dogs in each group.
Dogs were orally given 5 mg/kg of the test compound via gavage for oral study or given 2 mg/kg of compound (V) via the femoral vein for intravenous (i.v.) study. Blood samples were collected at 15 min, 30 min, 1 h, 1.5 h, 2 h, 4 h, 6 h, 8 h, 10 h, and 24 h after dosing and were analyzed by LC-MS/MS after pretreatment.
(§3) WPS software was used to calculate the mean value, standard deviation, precision and accuracy of each sample.

Data set [4] is described as follows: Plasma stability (incubation in rat whole blood, conversion to compound (V)). Format: in vitro ADME. The conditions noted are these: study period of 8 h. As to the method:
An aliquot of 1 ml of rat whole blood was mixed with 50 ul of stock solution containing the test substance in DMSO (1 mg/ml) to obtain final concentration of 50 ug/ml. The mixture was incubated at 37° C. Samples were taken at time points of 0 min, 30 min, 1 h, 2 h, 4 h and 8 h, and then added to an organic solvent to terminate the reaction. After pretreatment each sample was analyzed by LC-MS/MS to determine the plasma concentrations of compound (III), compound (IV) and compound (V). […] The hydrolysis of the carbamate bond of each compound was accomplished within 30 minutes

A short description of data set [5]: Pharmacokinetics in rat. The data set is classed as in vivo, SD Rat. As to conditions: single i.v. dose of 2 mg/kg. Here is the method: Animals: SD Rat (Weight 200˜300 g, Sex Male)
as §1, §2
Experimental procedures: After 3-day adaptive breeding, male Sprague-Dawley rats were divided into groups randomly with 4 rats in each group.
Rats were orally given 10 mg/kg of the test compound via gavage for oral study or given 2 mg/kg of compound (V) via the femoral vein for intravenous (i.v.) study. Blood samples were collected from the orbitat at 15 min, 30 min, 1 h, 1.5 h, 2 h, 4 h, 6 h, 8 h, 10 h, and 24 h after dosing and were analyzed by LC-MS/MS after pretreatment.
as §3

Setting [6] is: single intravenous injection 10 mg/kg, compared with dabigatran, Model 22.7 ± 3.5.
[7] abbreviates: single oral administration 10 mg/kg, Model 28.4 ± 7.5.
Setting [8] is: single intravenous injection 10 mg/kg, compared with melagatran, Model 19.6 ± 3.7.
The mark [9] stands for this setting: male, Sprague-Dawley, plasma, iv.

These results are taken from patent publication US12209141B2, “Dipeptide compounds and uses thereof” (HUAHAI US INC., priority 2018, dated 2025).

Take `[H]/N=C(/N)c1ccc(NCc2nc3cc(C(=O)N(CCC(=O)O)c4ccccn4)ccc3n2C)cc1` [Dabigatran, reference compound]: in data set [1] (setting [6]), the “wet weight of thrombus” value turned out to be 15.7 ± 4.0.

On to `CCOCCCOC(=O)N=C(N)c1ccc(CNC(=O)[C@@H]2CCCN2C(=O)[C@@H](CC(C)C)NCC(=O)OCC)cc1.Cl` [Compound 10, N-[(ethoxy)carbonyl]methyl-D-leucyl-L-prolyl-{4-[N′-((3-(ethoxy)propoxy)carbonyl)carbamimidoyl]benzyl} amide hydrochloride], for which the solubility at 1 h in data set [2] (pH 4.0, buffered salt solution) worked out at 6520 µM; in data set [2] (pH 6.3, buffered salt solution) it was 3350 µM; in data set [2] (pH 7.4, buffered salt solution), 495 µM; in data set [2] (pH 9.0, buffered salt solution), 119 µM. For the same molecule, in data set [1] (rat), the “antithrombotic effect (in words)” value is recorded as “significant antithrombotic effect”. In addition, the “wet weight of thrombus” value in data set [1] (setting [7]) came out at 14.6 ± 3.6.

`CCCCCCOC(=O)N=C(N)c1ccc(CNC(=O)[C@@H]2CCCN2C(=O)[C@@H](CC(C)C)NCC(=O)OCC)cc1.Cl` [Compound 17, N-[(ethoxy)carbonyl]methyl-D-leucyl-L-prolyl-{4-[N′-(hexyloxycarbonyl)carbamimidoyl]benzyl} amide hydrochloride]: the solubility at 1 h was found to be 5840 µM in data set [2] (pH 4.0, buffered salt solution); 3720 µM in data set [2] (pH 6.3, buffered salt solution); 693 µM in data set [2] (pH 7.4, buffered salt solution); 147 µM in data set [2] (pH 9.0, buffered salt solution). Besides, the “antithrombotic effect (in words)” value in data set [1] (rat) was “significant antithrombotic effect”. Besides, in data set [1] (setting [7]), the “wet weight of thrombus” value came out at 11.0 ± 5.5.

As to `CCOC(=O)CN[C@H](CC(C)C)C(=O)N1CCC[C@H]1C(=O)NCc1ccc(C(N)=NC(=O)CC(C)C(=O)OCC)cc1.Cl` (stereo partly drawn) [Compound 12, N-[(ethoxy)carbonyl]methyl-D-leucyl-L-prolyl-{4-[N′-((2-(ethoxycarbonyl)propyl)carbonyl)carbamimidoyl]benzyl} amide hydrochloride], the “antithrombotic effect (in words)” value in data set [1] (rat) is “significant antithrombotic effect”. In addition, the “wet weight of thrombus” value in data set [1] (setting [7]) is listed as 20.5 ± 4.7.

For the molecule `CCCCCCOC(=O)N=C(N)c1ccc(CNC(=O)[C@@H]2CCCN2C(=O)[C@@H](CC(C)C)NCC(=O)OC(C)(C)C)cc1.Cl` [Compound 19, N-[(tert-butyloxy)carbonyl]methyl-D-leucyl-L-prolyl-{4-[N′-(hexyloxycarbonyl)carbamimidoyl]benzyl} amide hydrochloride], in data set [1] (rat), the “antithrombotic effect (in words)” value is “significant antithrombotic effect”. Also, in data set [1] (setting [7]), the “wet weight of thrombus” value is 13.9 ± 6.0.

In the case of `CCOC(=O)CN[C@H](CC(C)C)C(=O)N1CCC[C@H]1C(=O)NCc1ccc(C(N)=NC(=O)OCCOCCOCc2ccccc2)cc1.Cl` [Compound 8, N-[(ethoxy)carbonyl]methyl-D-leucyl-L-prolyl-{4-[N′-((2-(2-(benzyloxy)ethoxy)ethoxy)carbonyl)carbamimidoyl]benzyl} amide hydrochloride], in data set [1] (rat), the “antithrombotic effect (in words)” value is “significant antithrombotic effect”. In addition, in data set [1] (setting [7]), the “wet weight of thrombus” value amounted to 12.5 ± 3.1.

Regarding `N=C(N)c1ccc(CNC(=O)[C@@H]2CCN2C(=O)[C@H](NCC(=O)O)C2CCCCC2)cc1` [Melagatran, reference compound], the “wet weight of thrombus” value in data set [1] (setting [8]) is given as 7.8 ± 7.6.

For the molecule `CCOCCOCCOC(=O)N=C(N)c1ccc(CNC(=O)[C@@H]2CCCN2C(=O)[C@@H](CC(C)C)NCC(=O)OCC)cc1.Cl` [Compound 6, N-[(ethoxy)carbonyl]methyl-D-leucyl-L-prolyl-{4-[N′-((2-(2-(ethoxy)ethoxy)ethoxy)carbonyl)carbamimidoyl]benzyl} amide hydrochloride], the “antithrombotic effect (in words)” value in data set [1] (rat) is given as “significant antithrombotic effect”. Further, the “wet weight of thrombus” value in data set [1] (setting [7]) is given as 19.7 ± 6.4.

Turning to `CCOC(=O)CN[C@H](CC(C)C)C(=O)N1CCC[C@H]1C(=O)NCc1ccc(C(N)=NC(=O)OCCOC)cc1.Cl` [Compound 2, N-[(ethoxy)carbonyl]methyl-D-leucyl-L-prolyl-{4-[N′-((2-(methoxy)ethoxy)carbonyl)carbamimidoyl]benzyl}amide hydrochloride], the “antithrombotic effect (in words)” value in data set [1] (rat) is “significant antithrombotic effect”. In data set [1] (setting [7]), the “wet weight of thrombus” value came to 16.7 ± 8.0.

Consider `CCOC(=O)CN[C@H](CC(C)C)C(=O)N1CCC[C@H]1C(=O)NCc1ccc(C(N)=NC(=O)OCc2oc(=O)oc2C)cc1.Cl` [Compound 1, N-[(ethoxy)carbonyl]methyl-D-leucyl-L-prolyl-{4-[N′-(((5-methyl-2-oxo-1,3-dioxol-4-yl)methyl)oxycarbonyl)carbamimidoyl]benzyl} amide hydrochloride], for which the solubility at 1 h in data set [2] (pH 4.0, buffered salt solution) worked out at 7720 µM; in data set [2] (pH 6.3, buffered salt solution), 3990 µM; in data set [2] (pH 7.4, buffered salt solution), 613 µM; in data set [2] (pH 9.0, buffered salt solution), 196 µM. In data set [1] (rat), the “antithrombotic effect (in words)” value was “significant antithrombotic effect”. In data set [1] (setting [7]), the “wet weight of thrombus” value amounted to 10.8 ± 5.1.

As to `CC(C)C[C@@H](NCC(=O)O)C(=O)N1CCC[C@H]1C(=O)NCc1ccc(C(=N)N)cc1` [Compound of Formula (V)], the AUC(0-inf) in data set [3] (male, beagle, plasma, iv) is 4340 ng·h/mL; in data set [5] (setting [9]), 2960 ng·h/mL. Moreover, the highest concentration (Cmax) in data set [3] (male, beagle, plasma, iv) was found to be 4040 ng/mL; in data set [5] (setting [9]), 4720 ng/mL. The half-life was 11.8 h in data set [3] (male, beagle, plasma, iv) and 5.02 h in data set [5] (setting [9]). The figures for the CLz/F in data set [3] and in data set [5] were 7.9 mL/min/kg and 11.6 mL/min/kg, respectively. For the same molecule, in data set [4], the “stability in plasma stability experiment (in words)” value is on record as “substantially stable, with no significant degradation”. Also, in data set [1] (rat, single injection at 10 mg/kg), the “anti-thrombotic activity (in words)” value was “superior anti-thrombotic activity compared to dabigatran and melagatran”. In addition, the “wet weight of thrombus” value came to 13.3 ± 1.5 in data set [1] (setting [6]) and 6.8 ± 5.0 in data set [1] (setting [8]).

For orientation: solubility means the dissolved amount per volume that the medium holds. For orientation: AUC(0-inf) means total exposure, with the tail of the curve extrapolated. In general, Cmax refers to the peak of the concentration-time curve. In general, half-life refers to how long it takes for the measured level to halve.
